{"source": "patent US20080081053A1", "about": "“Treatment Method” (priority 2004, published 2008)", "test_system": "advanced AML", "test": "Phase 2 clinical study in patients with advanced AML", "assay_type": "in vivo, human", "details": "for %myeloblasts in bone marrow: patient with HI for neutrophils, 36% at baseline", "method": "In a Phase 2 clinical study, 24 patients, 18 years or older, with advanced AML were treated with 12.5 mg AP23573 as a 30-minute intravenous infusion daily for 5 days every-2-weeks (QDX5, daily). The majority of patients enrolled in this trial had aggressive disease and received AP23573 study treatment as at least a 3rd line treatment regimen. Responses were assessed at the end of each cycle (4 weeks of study treatment). At the end of one cycle, two patients had Hematologic Improvement (HI), including erythroid and neutrophil minor responses. […] Six patients were stable at the end of Cycle 1 (neither response nor disease progression).\nThe criteria for observed responses were as follows: • a Minor Response for erythroid HI: for patients with pre-dosing hemoglobin less than 11 g/dL, […] increase in hemoglobin; for RBC transfusion-dependnt patients, 50% decrease in transfusion requirements • a Minor Response for neutrophil HI: for ANC less than 1.5×10^9 before dosing, ANC increase of at least 100%, but absolute increase less than 1.5×10^9 • Stable Disease/no response: no significant change since baseline (neither response nor progression criteria were met) • Progressive Disease: One of the following: a 50% or greater decrement from maximum response levels in graunulocytes or platelets, a reduction in hemoglobin concentration by at least 2 g/dL, or transfusion dependence", "data": [{"smiles": "CO[C@H]1C[C@@H]2CC[C@@H](C)[C@@](O)(O2)C(=O)C(=O)N2CCCC[C@H]2C(=O)O[C@H]([C@H](C)C[C@@H]2CC[C@@H](OP(C)(C)=O)[C@H](OC)C2)CC(=O)[C@H](C)/C=C(\\C)[C@@H](O)[C@@H](OC)C(=O)[C@H](C)C[C@H](C)/C=C/C=C/C=C/1C", "note": "[AP23573]", "values": [{"measurement": "patients with Hematologic Improvement (HI), including erythroid and neutrophil minor responses", "setting": "24 patients with advanced AML, 12.5 mg, 30-minute i.v. infusion daily for 5 days every 2 weeks (QDX5), at the end of one cycle (4 weeks)", "value": "two"}, {"measurement": "patients stable (neither response nor disease progression)", "setting": "24 patients with advanced AML, end of Cycle 1, 12.5 mg i.v. QDX5", "value": "Six"}, {"measurement": "%myeloblasts in bone marrow", "setting": "at Cycle 2, 12.5 mg i.v. QDX5", "value": 15, "unit": "%"}, {"measurement": "%myeloblasts in bone marrow", "setting": "end of Cycle 1, 12.5 mg i.v. QDX5", "value": 9, "unit": "%"}]}]}
